Here are results for one compound from PMC8799717, “Pharmacological targeting PIKfyve and tubulin as an effective treatment strategy for double-hit lymphoma” (Cell Death Discovery, 2022).

Some targets named below: PRKCE (Homo sapiens, UniProt Q02156); EPHB1 (Homo sapiens, UniProt P54762); BMPR2 (Homo sapiens, UniProt Q13873); MKNK2 (Homo sapiens, UniProt Q9HBH9); AKT3 (Homo sapiens, UniProt Q9Y243); SRPK2 (Homo sapiens, UniProt P78362); TNK1 (Homo sapiens, UniProt Q13470); PIK3CA (Homo sapiens, UniProt P42336); RET (Homo sapiens, UniProt P07949); BUB1 (Homo sapiens, UniProt O43683); STK39 (Homo sapiens, UniProt Q9UEW8); MAP4K3 (Homo sapiens, UniProt Q8IVH8); ABL2 (Homo sapiens, UniProt P42684); NEK1 (Homo sapiens, UniProt Q96PY6); PLK3 (Homo sapiens, UniProt Q9H4B4); CSNK1G2 (Homo sapiens, UniProt P78368); FLT3-autoinhibited (Homo sapiens, UniProt P36888); MAP4K5 (Homo sapiens, UniProt Q9Y4K4).

What all share (assay): biochemical
Common to all, as to parameters: KINOMEscan active-site-directed competition binding panel, 468 kinases, percent of DMSO control at 1 uM
What all share (conditions): KINOMEscan binding, percent of DMSO control; read-out: Ctrl%

A further test concerns the target T1, TRKA (Homo sapiens, UniProt P04629).
T1 construct: gene NTRK1

The next test addresses T2, GCN2(Kin.Dom.2,S808G) (Homo sapiens, UniProt Q9P2K8, S808G).
T2 construct: gene EIF2AK4; Kin.Dom.2

A further test deals with T3, PCTK3 (Homo sapiens, UniProt Q07002).
T3 construct: gene CDK18

The next test has as its target T4, LOK (Homo sapiens, UniProt O94804).
T4 construct: gene STK10

The target in the next test is T5, DCAMKL1 (Homo sapiens, UniProt O15075).
T5 construct: gene DCLK1

A further test addresses T6, p38-alpha (Homo sapiens, UniProt Q16539).
T6 construct: gene MAPK14

T2 sequence (Q9P2K8 whole entry S808G): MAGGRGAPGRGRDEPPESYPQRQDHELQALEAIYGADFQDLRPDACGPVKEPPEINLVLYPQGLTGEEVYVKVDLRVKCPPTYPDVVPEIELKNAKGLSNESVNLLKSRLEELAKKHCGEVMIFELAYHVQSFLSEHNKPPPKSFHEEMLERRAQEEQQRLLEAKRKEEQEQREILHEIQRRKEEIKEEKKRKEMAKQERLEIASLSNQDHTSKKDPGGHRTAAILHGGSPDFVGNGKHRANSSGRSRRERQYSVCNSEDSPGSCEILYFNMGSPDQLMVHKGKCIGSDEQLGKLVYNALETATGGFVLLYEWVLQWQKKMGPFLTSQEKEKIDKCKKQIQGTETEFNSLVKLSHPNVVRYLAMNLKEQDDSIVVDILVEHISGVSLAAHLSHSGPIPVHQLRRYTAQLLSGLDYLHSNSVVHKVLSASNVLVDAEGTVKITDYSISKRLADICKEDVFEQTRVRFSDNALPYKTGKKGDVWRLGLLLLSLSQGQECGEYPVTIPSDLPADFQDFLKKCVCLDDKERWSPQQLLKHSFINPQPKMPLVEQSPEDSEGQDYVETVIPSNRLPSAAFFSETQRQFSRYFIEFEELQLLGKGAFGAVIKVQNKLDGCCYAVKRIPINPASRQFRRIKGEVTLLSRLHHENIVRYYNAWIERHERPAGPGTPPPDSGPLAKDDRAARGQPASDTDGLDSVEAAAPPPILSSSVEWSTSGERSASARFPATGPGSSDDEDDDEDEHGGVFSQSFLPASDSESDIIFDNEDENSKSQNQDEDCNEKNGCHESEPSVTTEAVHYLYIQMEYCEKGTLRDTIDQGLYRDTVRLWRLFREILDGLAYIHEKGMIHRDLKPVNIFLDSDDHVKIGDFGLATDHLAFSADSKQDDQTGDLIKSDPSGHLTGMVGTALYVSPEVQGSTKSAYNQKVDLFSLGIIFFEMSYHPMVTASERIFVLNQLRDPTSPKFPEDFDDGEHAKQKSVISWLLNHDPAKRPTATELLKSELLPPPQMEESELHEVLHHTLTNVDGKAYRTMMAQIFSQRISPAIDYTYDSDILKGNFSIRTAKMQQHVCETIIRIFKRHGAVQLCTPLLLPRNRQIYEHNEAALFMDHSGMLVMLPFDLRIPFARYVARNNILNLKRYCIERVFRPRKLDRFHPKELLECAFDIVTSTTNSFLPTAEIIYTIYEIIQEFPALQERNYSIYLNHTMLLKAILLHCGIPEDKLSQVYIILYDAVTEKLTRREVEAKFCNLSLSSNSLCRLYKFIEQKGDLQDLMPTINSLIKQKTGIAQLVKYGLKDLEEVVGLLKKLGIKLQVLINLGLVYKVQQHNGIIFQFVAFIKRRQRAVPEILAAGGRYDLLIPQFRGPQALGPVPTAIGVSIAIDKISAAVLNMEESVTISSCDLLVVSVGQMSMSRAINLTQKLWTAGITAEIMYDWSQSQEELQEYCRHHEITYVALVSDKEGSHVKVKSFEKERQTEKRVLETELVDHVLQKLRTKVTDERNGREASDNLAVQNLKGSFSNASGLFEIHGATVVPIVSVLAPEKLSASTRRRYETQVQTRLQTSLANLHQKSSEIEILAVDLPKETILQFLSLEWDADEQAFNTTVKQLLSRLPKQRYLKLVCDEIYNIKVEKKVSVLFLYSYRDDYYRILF
Sequence of MAP4K3 (Q8IVH8 whole entry): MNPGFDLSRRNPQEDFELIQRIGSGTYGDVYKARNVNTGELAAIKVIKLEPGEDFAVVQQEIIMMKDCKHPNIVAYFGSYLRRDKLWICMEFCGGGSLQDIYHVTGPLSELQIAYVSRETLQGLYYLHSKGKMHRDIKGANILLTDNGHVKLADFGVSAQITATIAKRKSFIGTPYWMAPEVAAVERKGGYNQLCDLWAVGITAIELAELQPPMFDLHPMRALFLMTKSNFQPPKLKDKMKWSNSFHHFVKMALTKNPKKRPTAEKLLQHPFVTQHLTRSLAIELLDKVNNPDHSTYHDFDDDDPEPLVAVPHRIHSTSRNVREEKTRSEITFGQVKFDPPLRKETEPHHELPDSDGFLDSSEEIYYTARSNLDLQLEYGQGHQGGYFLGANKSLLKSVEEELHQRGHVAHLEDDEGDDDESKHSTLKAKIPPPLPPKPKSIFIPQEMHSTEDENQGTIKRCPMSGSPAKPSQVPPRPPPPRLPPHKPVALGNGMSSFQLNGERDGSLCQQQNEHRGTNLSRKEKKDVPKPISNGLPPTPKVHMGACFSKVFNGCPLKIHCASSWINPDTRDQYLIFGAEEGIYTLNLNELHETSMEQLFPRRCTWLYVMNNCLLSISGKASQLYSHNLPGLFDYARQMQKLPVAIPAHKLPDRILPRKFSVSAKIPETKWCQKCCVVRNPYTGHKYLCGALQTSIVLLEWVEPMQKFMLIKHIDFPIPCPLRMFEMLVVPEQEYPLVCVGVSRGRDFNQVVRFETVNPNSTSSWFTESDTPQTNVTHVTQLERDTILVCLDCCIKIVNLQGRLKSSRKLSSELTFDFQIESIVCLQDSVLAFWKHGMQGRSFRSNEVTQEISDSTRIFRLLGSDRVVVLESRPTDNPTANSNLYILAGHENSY
Sequence of BMPR2 (Q13873 whole entry): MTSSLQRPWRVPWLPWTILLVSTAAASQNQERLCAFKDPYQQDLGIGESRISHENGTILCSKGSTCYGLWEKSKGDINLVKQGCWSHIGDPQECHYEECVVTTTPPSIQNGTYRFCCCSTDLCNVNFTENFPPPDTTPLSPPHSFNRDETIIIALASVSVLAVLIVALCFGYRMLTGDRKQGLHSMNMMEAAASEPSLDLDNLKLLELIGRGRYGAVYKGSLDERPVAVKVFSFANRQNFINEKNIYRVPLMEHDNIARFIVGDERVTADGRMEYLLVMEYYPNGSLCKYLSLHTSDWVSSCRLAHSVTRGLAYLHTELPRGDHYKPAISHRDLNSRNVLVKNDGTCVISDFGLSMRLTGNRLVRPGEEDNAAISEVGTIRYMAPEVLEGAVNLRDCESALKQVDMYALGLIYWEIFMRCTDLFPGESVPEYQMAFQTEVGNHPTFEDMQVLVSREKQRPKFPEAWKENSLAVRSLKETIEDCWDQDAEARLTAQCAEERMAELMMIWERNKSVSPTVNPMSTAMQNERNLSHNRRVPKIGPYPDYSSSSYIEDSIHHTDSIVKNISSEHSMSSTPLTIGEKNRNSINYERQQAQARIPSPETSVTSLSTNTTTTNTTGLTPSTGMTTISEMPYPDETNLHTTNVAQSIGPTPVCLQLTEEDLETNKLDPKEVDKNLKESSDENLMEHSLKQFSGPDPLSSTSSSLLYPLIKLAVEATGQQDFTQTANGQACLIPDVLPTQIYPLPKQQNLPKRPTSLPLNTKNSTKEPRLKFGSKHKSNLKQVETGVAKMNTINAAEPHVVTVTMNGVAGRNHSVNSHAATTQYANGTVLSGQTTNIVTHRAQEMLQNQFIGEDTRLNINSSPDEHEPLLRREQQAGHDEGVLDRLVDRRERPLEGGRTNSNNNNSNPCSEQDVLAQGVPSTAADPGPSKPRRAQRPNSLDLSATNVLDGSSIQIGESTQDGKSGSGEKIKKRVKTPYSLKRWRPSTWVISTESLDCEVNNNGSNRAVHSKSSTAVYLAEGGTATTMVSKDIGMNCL
Sequence of ABL2 (P42684 whole entry): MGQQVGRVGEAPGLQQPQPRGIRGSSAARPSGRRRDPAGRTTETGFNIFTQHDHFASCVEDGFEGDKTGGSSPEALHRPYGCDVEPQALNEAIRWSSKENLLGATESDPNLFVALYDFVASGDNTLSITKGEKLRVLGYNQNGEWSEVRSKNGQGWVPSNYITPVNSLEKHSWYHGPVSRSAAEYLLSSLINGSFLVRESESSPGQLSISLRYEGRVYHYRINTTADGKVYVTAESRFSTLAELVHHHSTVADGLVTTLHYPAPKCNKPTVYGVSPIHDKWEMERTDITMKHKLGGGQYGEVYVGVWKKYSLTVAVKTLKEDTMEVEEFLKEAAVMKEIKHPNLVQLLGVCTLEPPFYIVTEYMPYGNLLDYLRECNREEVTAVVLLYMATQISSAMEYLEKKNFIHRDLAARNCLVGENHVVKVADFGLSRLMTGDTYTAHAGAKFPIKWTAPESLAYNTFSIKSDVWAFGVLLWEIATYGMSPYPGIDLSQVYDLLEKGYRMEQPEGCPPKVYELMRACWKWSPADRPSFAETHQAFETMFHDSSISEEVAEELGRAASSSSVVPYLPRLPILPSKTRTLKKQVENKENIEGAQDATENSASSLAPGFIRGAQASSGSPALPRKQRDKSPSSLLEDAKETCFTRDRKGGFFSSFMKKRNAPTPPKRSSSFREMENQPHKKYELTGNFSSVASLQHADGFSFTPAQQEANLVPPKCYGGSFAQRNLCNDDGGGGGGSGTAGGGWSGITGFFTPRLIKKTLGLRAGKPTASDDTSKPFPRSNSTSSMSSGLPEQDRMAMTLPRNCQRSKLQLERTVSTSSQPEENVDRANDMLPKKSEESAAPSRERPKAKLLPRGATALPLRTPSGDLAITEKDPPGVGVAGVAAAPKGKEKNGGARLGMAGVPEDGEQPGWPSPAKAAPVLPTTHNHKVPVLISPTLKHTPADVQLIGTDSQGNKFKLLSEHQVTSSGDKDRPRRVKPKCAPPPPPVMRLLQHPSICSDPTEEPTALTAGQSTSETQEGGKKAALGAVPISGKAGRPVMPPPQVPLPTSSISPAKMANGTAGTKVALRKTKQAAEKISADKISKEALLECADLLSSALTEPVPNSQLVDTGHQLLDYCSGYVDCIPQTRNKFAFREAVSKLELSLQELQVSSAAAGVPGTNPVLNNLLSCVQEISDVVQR
T6 sequence (Q16539 whole entry): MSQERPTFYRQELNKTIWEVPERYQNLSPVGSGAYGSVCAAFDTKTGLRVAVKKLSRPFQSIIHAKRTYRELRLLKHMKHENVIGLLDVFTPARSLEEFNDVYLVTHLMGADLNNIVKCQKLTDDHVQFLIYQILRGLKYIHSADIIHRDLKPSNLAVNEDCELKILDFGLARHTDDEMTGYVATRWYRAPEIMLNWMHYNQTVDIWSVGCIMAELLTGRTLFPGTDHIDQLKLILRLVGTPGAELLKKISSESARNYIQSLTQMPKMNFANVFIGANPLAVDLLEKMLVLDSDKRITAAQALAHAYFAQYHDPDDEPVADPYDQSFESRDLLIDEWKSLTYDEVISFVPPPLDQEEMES

For the compound `Cc1ccc(NC(=O)c2cccc(C(F)(F)F)c2)cc1Nc1cc(-c2cccnc2)nc2[nH]ccc12` [HZX-02-059], the remaining binding at 1 µM stood at 100% at TRKA; 96% at PRKCE; 39% at EPHB1; 100% on BMPR2; 80% at MKNK2; 100% on GCN2(Kin.Dom.2,S808G). Further, the remaining binding at 1 µM is 69% at AKT3; 83% at SRPK2; 91% on TNK1; 100% on PIK3CA; 90% at RET; 100% at BUB1. For the same compound, the remaining binding at 1 µM on STK39 worked out at 94%; at MAP4K3, 97%; on ABL2, 26%; on PCTK3, 84%; on LOK, 47%; on NEK1, 78%. The remaining binding at 1 µM amounted to 93% at PLK3; 96% at CSNK1G2; 98% at FLT3-autoinhibited; 93% on DCAMKL1; 77% at p38-alpha; 73% on MAP4K5.
